Measured values from article PMC3199943, “Screening the MayBridge Rule of 3 Fragment Library for Compounds That Interact with the Trypanosoma brucei myo-Inositol-3-Phosphate Synthase and/or Show Trypanocidal Activity” (Molecular Biology International, 2011).
Structures can show the parent of a compound that is named as a salt. Where two headings read alike, the source gives them in different places.

What was measured:
HeLa cells = test: cells; settings: for CC50 / viability at 500 µM: Homo sapiens, HeLa; for CC50: read-out: HeLa ED50; for viability at 500 µM: 65 h; for HeLa Cells Alamar Blue: Supplementary Table 1
Experimental: (§1) Cytotoxic effects against HeLa and A549 cells were determined in a similar manner. Briefly, the cells were cultured in DMEM supplemented with 10% FCS and 2 mM L-Glutamine. Cells were plated at initial cell concentration of 2 × 10^4 cells/well and incubated with the compounds for ~65 hours prior to addition of Alamar Blue solution for a further 5 hours.

A549 cells = test: Cytotoxicity against A549 cells, Alamar Blue; assay type: cell-based; settings: Supplementary Table 1, compound 0.5 mM, percentage of controls (n=1); for viability at 500 µM: Homo sapiens, A549, 65 h
Experimental: as §1

[1] = read-out: HeLa Cells Alamar Blue
[2] = compound 0.5 mM, percentage of controls, mean ± SD (n=3) or SE (n=2)

Row | Compound | viability at 500 µM (HeLa cells; [1]) | viability at 500 µM (A549 cells) | other results
1 | Fc1cc2nc[nH]c2cc1Cl [269d] |  |  | CC50 (HeLa cells): 520 ± 52 µM
2 | OCc1cc(-c2cccs2)[nH]n1 [compound 459, (5‐thien‐2‐yl‐1H‐pyrazol‐3‐yl)methanol] | 27.8 ± 10.9% | 85% | 
3 | Nc1cccc(N)c1 [compound 461, benzene‐1,3‐diamine dihydrochloride] |  | 91.8% | viability at 500 µM (HeLa cells; read-out: HeLa Cells Alamar Blue, Supplementary Table 1, compound 0.5 mM, percentage of controls, mean ± SD (n=3) or SE (n=2)): 106 ± 10.7%
4 | COC(=O)C1NCCS1 (stereo not drawn) [compound 44, methyl 1,3-thiazolane-2-carboxylate hydrochloride] |  | 87% | 
5 | Cn1ncc(CO)c1-c1ccccc1 [compound 530, (1‐methyl‐5‐phenyl‐1H‐pyrazol‐4‐yl)methanol] |  |  | HeLa Cells Alamar Blue (HeLa cells; [2]): 87.4 ± 6.2 percentage of controls; A549 Cells Alamar Blue (A549 cells): 109.5 percentage of controls
6 | COC(=O)Cc1cccc(OC)c1 [compound 451, methyl 2‐(3‐methoxyphenyl)acetate] | 101 ± 9.6% | 93.2% | 
7 | OCc1ccc(-c2ccsc2)cc1 [compound 545, (4‐thien‐3‐ylphenyl)methanol] | 84.3 ± 13.2% | 87.2% | 
8 | N#CC(c1ccccc1)N1CCOCC1 (stereo not drawn) [compound 638, 2‐morpholino‐2‐phenylacetonitrile] | 80.5 ± 8.2% | 89.8% | 
9 | CC12CCC(O)(CC1)CC2=O [compound 222, 4‐hydroxy‐1‐methylbicyclo[2.2.2]octan‐2‐one] |  |  | HeLa Cells Alamar Blue (HeLa cells; [2]): 101.8 ± 5.9 percentage of controls; A549 Cells Alamar Blue (A549 cells): 82.3 percentage of controls
10 | Cn1nc(CO)cc1-c1ccccc1 [compound 525, (1‐methyl‐5‐phenyl‐1H‐pyrazol‐3‐yl)methanol] |  |  | HeLa Cells Alamar Blue (HeLa cells; [2]): 64.8 ± 9.8 percentage of controls; A549 Cells Alamar Blue (A549 cells): 64.6 percentage of controls
11 | Cn1c(=S)oc2ccccc21 [compound 310, 3‐methyl‐1,3‐benzoxazole‐2(3H)‐thione] | 103 ± 14.3% | 104% | 
12 | Nc1ccccc1N1CCNCC1 [compound 429, 2‐piperazin‐1‐ylaniline] | 78.5 ± 7.7% | 54.3% | 
13 | Nc1cc(F)c(Cl)cc1N [compound 269, 4-chloro-5-fluorobenzene-1,2-diamine] | 23.4 ± 14.8% | 50.4% | CC50 (HeLa cells): 431 ± 53 µM
14 | N#CC1(O)CN2CCC1CC2 (stereo not drawn) [compound 208, 3‐hydroxyquinuclidine‐3‐carbonitrile] | 99.4 ± 11.2% | 61.8% | 
15 | Nc1ccc2c(c1)OCCCO2 [compound 308, 3,4‐dihydro‐2H‐1,5‐benzodioxepin‐7‐amine] |  |  | HeLa Cells Alamar Blue (HeLa cells; [2]): 98.7 ± 6.1 percentage of controls; A549 Cells Alamar Blue (A549 cells): 82.8 percentage of controls
16 | NC(=O)NCc1ccc(F)cc1 [compound 334, N‐(4‐fluorobenzyl)urea] | 112 ± 4.7% | 91.8% | 
17 | CC12CC(=O)CC1(C)CC(=O)C2 (stereo not drawn) [compound 324, 3a,6a‐dimethylperhydropentalene‐2,5‐dione] |  |  | HeLa Cells Alamar Blue (HeLa cells; [2]): 103.2 ± 21.9 percentage of controls; A549 Cells Alamar Blue (A549 cells): 94.2 percentage of controls
18 | OC12CC3CC(CC(C3)C1)C2 [compound 209, adamantan‐1‐ol] | 92.2 ± 6.7% | 76.1% | 
19 | Clc1cn2ccsc2n1 [compound 253, 6‐chloroimidazo[2,1‐b][1,3]thiazole] | 82.1% | 85.1% | 
20 | O=C(C1CCCNC1)N1CCCC1 (stereo not drawn) [compound 468, 3‐piperidinyl(1‐pyrrolidinyl)methanone] | 110 ± 13.3% | 80.7% | 
21 | Cc1nc2ccccn2c1CO [compound 287, (2‐methylimidazo[1,2‐a]pyridin‐3‐yl)methanol] |  |  | HeLa Cells Alamar Blue (HeLa cells; [2]): 76.2 ± 14 percentage of controls; A549 Cells Alamar Blue (A549 cells): 79.7 percentage of controls
22 | Nc1ccc(Cl)c(F)c1 [269b] |  |  | CC50 (HeLa cells): 1400 ± 100 µM
23 | Nc1ccccc1N [269a, benzene-1,2-diamine] |  |  | CC50 (HeLa cells): 32.9 ± 2.5 µM
24 | Nc1ccccc1O [269e, 2-amino-phenol] |  |  | CC50 (HeLa cells): 68.2 ± 3.2 µM
25 | Nc1ccc(Cl)cc1N [269c] |  |  | CC50 (HeLa cells): 224 ± 35 µM
